This passage reports EC50 and IC50 results from patent US8829007B2 (priority 2009, dated 2014).

In assay [1] the test system is A/PR/8/34 influenza virus. Put plainly: microbe, parasite or virus in culture. The format is cell-based.
Assay [2] deals with influenza A virus (A/PR/8/34). The assay can be described thus: microbe, parasite or virus in culture. The format is cell-based.
[3] abbreviates: bDNA assay, A/PR/8/34 influenza virus replication in MDCK cells, class symbols, read-out: EC50 (mean all).
[4] abbreviates: CPE assay, A/PR/8/34 infected MDCK cells, class symbols, read-out: IC50 (mean all).
[5] abbreviates: Influenza A virus, PR/8, MDCK, MDCK cells infected with A/PR/8/34, replication of influenza virus (viral RNA, bDNA), class symbols, read-out: EC50 (mean all).
Setting [6] is: Influenza A virus, PR/8, MDCK, MDCK cells infected with A/PR/8/34, survival of infected cells, class symbols, read-out: IC50 (mean all).
The mark [7] stands for this setting: mean all, bDNA viral RNA in MDCK cells infected with A/PR/8/34, read-out: EC50.
Where [8] appears, read: mean all, MDCK cells infected with A/PR/8/34, cell protection (CPE), read-out: IC50.
Setting [9] is: Influenza A virus, PR/8, MDCK, MDCK cells infected with A/PR/8/34, bDNA viral RNA, read-out: EC50 (mean all).
Where [10] appears, read: Influenza A virus, PR/8, MDCK, MDCK cells infected with A/PR/8/34, cell protection (CPE), read-out: IC50 (mean all).
The mark [11] stands for this setting: Influenza A virus, PR/8, MDCK, mean all, A/PR/8/34 influenza virus in MDCK cells, bDNA assay, read-out: EC50.
Setting [12] is: Influenza A virus, PR/8, MDCK, mean all, A/PR/8/34 infected MDCK cells, CPE assay, read-out: IC50.

pEC50, pIC50: −log10 of the molar value. Like-named read-outs stand apart in the source and are kept apart here. A value given as a limit tells only on which side of the number the result lay.

One may read the pEC50 as the negative decadic logarithm of the EC50, by convention in mol/L. A word on the pIC50: it is −log10 of the IC50, conventionally taken in molar units. Consider `C=CC1(O)CCCC(Nc2nc(-c3c[nH]c4ncc(Cl)cc34)ncc2F)C1` (centres unmarked) [Compound 628], for which the pEC50 in assay [1] (setting [3]) is greater than 5.30. Further, the negative-log IC50 (pIC50) in assay [2] (setting [4]) was greater than 5.30.
`CCOC(=O)[C@@H]1CCCC[C@H]1Nc1nc(-c2c[nH]c3ncc(Cl)cc23)ncc1F` [Compound 560, (1R,2R)-ethyl 2-(2-(5-chloro-1H-pyrrolo[2,3-b]pyridin-3-yl)-5-fluoropyrimidin-4-ylamino)cyclohexanecarboxylate]: the pEC50 in assay [1] (setting [5]) is less than 5.00. Besides, in assay [2] (setting [6]), the pIC50 was less than 5.00.
`C#CC1(O)CCCC(Nc2nc(-c3c[nH]c4ncc(Cl)cc34)ncc2F)C1` (centres unmarked) [Compound 618]: the negative logarithm of the EC50 (pEC50) in assay [1] (setting [3]) was greater than 5.30. In addition, the negative logarithm of the IC50 (pIC50) in assay [2] (setting [4]) was greater than 5.30.
For `Nc1nc(-c2c[nH]c3ncc(Cl)cc23)nc(NC2CCCCC2C(=O)O)c1F` (centres unmarked) [Compound 674], in assay [1] (setting [7]), the pEC50 is greater than 5.30. Moreover, the pIC50 in assay [2] (setting [8]) was greater than 5.30.
Consider `C=CC1(O)CCCC(Nc2nc(-c3c[nH]c4ncc(Cl)cc34)ncc2F)C1` (centres unmarked) [Compound 627], for which, in assay [1] (setting [3]), the pEC50 was greater than 5.30. Moreover, the pIC50 in assay [2] (setting [4]) is greater than 5.30.
For `O=C(CN1CCCCC1)NC1CCCC(Nc2nc(-c3c[nH]c4ncc(Cl)cc34)ncc2F)C1` (centres unmarked) [Compound 729], the pEC50 in assay [1] (setting [7]) is greater than 5.30. Besides, the negative-log IC50 (pIC50) in assay [2] (setting [8]) is greater than 5.30.
In the case of “(R)-methyl 2-(3-((2-(5-chloro-1H-pyrrolo[2,3-b]pyridin-3-yl)-5-fluoropyrimidin-4-ylamino)methyl)piperidine-1-carboxamido)ethanoate [Compound 125]”, the pEC50 in assay [1] (read-out: EC50 (mean all)) was greater than 5.30. The pIC50 in assay [2] (read-out: IC50 (mean all)) is greater than 5.30.
With `CC1(C(=O)NC2CCCC(Nc3nc(-c4c[nH]c5ncc(Cl)cc45)ncc3F)C2)CCCO1` (centres unmarked) [Compound 682], the pEC50 in assay [1] (setting [7]) was greater than 5.30. For the same compound, the pIC50 in assay [2] (setting [8]) was greater than 5.30.
`O=C(OCCCl)N1CCCC[C@H]1CNc1nc(-c2c[nH]c3ncc(Cl)cc23)ncc1F` [Compound 163, (S)-2-chloroethyl 2-((2-(5-chloro-1H-pyrrolo[2,3-b]pyridin-3-yl)-5-fluoropyrimidin-4-ylamino)methyl)piperidine-1-carboxylate]: in assay [1] (setting [9]), the pEC50 is greater than 5.30. In assay [2] (setting [10]), the pIC50 was 4.70 to 5.30.
Take `N#CCN1CCC[C@H](Nc2nc(-c3c[nH]c4ncc(Cl)cc34)ncc2F)C1` [Compound 669]: in assay [1] (Influenza A virus, PR/8, MDCK, bDNA assay, A/PR/8/34 influenza virus replication in MDCK cells, class symbols, read-out: EC50 (mean all)), the negative logarithm of the EC50 (pEC50) is greater than 5.30. The pIC50 in assay [2] (Influenza A virus, PR/8, MDCK, CPE assay, A/PR/8/34 infected MDCK cells, class symbols, read-out: IC50 (mean all)) was greater than 5.30.
Consider `CCNC(=O)N1CCOCC1CNc1nc(-c2c[nH]c3ncc(Cl)cc23)ncc1F` (centres unmarked) [Compound 535, 3-((2-(5-chloro-1H-pyrrolo[2,3-b]pyridin-3-yl)-5-fluoropyrimidin-4-ylamino)methyl)-N-ethylmorpholine-4-carboxamide], for which the pEC50 in assay [1] (setting [5]) is less than 5.00. In addition, the negative-log IC50 (pIC50) in assay [2] (setting [6]) is 4.70 to 5.30.
Take `COCCOC(=O)N1CCCC[C@H]1CNc1nc(-c2c[nH]c3ncc(Cl)cc23)ncc1F` [Compound 161, (S)-2-methoxyethyl 2-((2-(5-chloro-1H-pyrrolo[2,3-b]pyridin-3-yl)-5-fluoropyrimidin-4-ylamino)methyl)piperidine-1-carboxylate]: the pEC50 in assay [1] (setting [9]) was greater than 5.30. Moreover, the pIC50 in assay [2] (setting [10]) is less than 4.70.
Take `CC(C)CC(=O)N1CCC[C@H](Nc2nc(-c3c[nH]c4ncc(Cl)cc34)ncc2F)C1` [Compound 332]: in assay [1] (setting [11]), the pEC50 is greater than 5.30. For the same compound, the pIC50 in assay [2] (setting [12]) is greater than 5.30.
As to `CCC(=O)N1CCC[C@H](Nc2nc(-c3c[nH]c4ncc(Cl)cc34)ncc2F)C1` [Compound 435], the negative-log EC50 (pEC50) in assay [1] (setting [11]) was greater than 5.30. Further, the pIC50 in assay [2] (setting [12]) was greater than 5.30.
For the compound `NC(=O)N1CCCC(Nc2nc(-c3c[nH]c4ncc(Cl)cc34)ncc2F)CC1` (centres unmarked) [Compound 509, 4-(2-(5-chloro-1H-pyrrolo[2,3-b]pyridin-3-yl)-5-fluoropyrimidin-4-ylamino)azepane-1-carboxamide], the negative logarithm of the EC50 (pEC50) in assay [1] (setting [5]) was greater than 5.30. Besides, the pIC50 in assay [2] (setting [6]) is greater than 5.30.
For `O=C(CC1CCCC1)N1CCC[C@H](CNc2nc(-c3c[nH]c4ncc(Cl)cc34)ncc2F)C1` [Compound 100, (R)-1-(3-((2-(5-chloro-1H-pyrrolo[2,3-b]pyridin-3-yl)-5-fluoropyrimidin-4-ylamino)methyl)piperidin-1-yl)-2-cyclopentylethanone], the pEC50 in assay [1] (setting [9]) is greater than 5.30. The negative logarithm of the IC50 (pIC50) in assay [2] (setting [10]) is greater than 5.30.
